# Assay results reported in US11414431B2, “Substituted pyrazolo[1,5-a]pyrimidines as TYK2 inhibitors” (Nimbus Lakshmi, Inc., priority 2018, dated 2022).
# System: IL-12 induced STAT4 phosphorlyation mediated by TYK2/JAK2
# Assay: IL-12 Induced pSTAT4 in Human PBMC
# Format: cell-based
# Settings: 1.7 ng/mL IL-12 for 30 minutes
# In short: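 pSTAT4 and total STAT4 quantified by MSD in lysates of cryopreserved human PBMC after 30-minute stimulation with 1.7 ng/mL IL-12 (final). Compound was added 1 hr beforehand at 37° C, 0.1% DMSO final.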
row,Compound,IC50 [µM]
1,CNc1cc(-c2cn([C@H]3C[C@@H](O)C3)c3ncccc23)nc2c(C(=O)N[C@H]3CC[C@@H]3F)cnn12 [Compound I-511],< 0.1
2,CNc1cc(Nc2cccn(-c3ccccn3)c2=O)nc2c(C(=O)N[C@H]3CC[C@@H]3F)cnn12 [Compound I-201],< 0.1
3,CNc1cc(Nc2cccn([C@H]3C[C@H](OC)C3)c2=O)nc2c(C(=O)NC3CC[C@@H]3F)cnn12 (mixture of isomers) [Compound I-176],< 0.1
4,CNc1cc(-c2cnc3n([C@@H]4COC[C@H]4OC)cccc2-3)nc2c(C(=O)NC3CC[C@@H]3F)cnn12 (stereo partly shown) [Compound I-835],< 0.1
5,CNc1cc(Nc2cccn([C@H]3CC[C@@H]3OC)c2=O)nc2c(C(=O)N[C@H]3CC[C@H]3O)cnn12 [Compound I-240],< 0.1
6,CNc1cc(-c2cn(C3CN(C)C3)c3ncccc23)nc2c(C(=O)NC3CCC3(F)F)cnn12 (stereo not shown) [Compound I-676],< 0.1
7,CNc1cc(Nc2cccn(C3CCOCC3)c2=O)nc2c(C(=O)N[C@@H]3CC[C@]3(O)C(F)(F)F)cnn12 [Compound I-976],0.1 to 0.5
8,CNc1cc(-c2cn([C@@H]3CCOC[C@H]3F)c3ncccc23)nc2c(C(=O)N[C@H]3COC[C@H]3O)cnn12 [Compound I-937],0.1 to 0.5
9,CNc1cc(-c2cn([C@@H]3CCN(C)C3)c3ncccc23)nc2c(C(=O)NC3CCC3(F)F)cnn12 (stereo partly shown) [Compound I-686],< 0.1
10,CNc1cc(-c2cn([C@H]3CC3(F)F)c3ncccc23)nc2c(C(=O)NC3COC[C@H]3O)cnn12 (stereo partly shown) [Compound I-709],0.1 to 0.5
11,CNc1cc(Nc2cccn([C@H]3CC[C@@H]3OC)c2=O)nc2c(C(=O)NC3CC[C@H]3O)cnn12 (stereo partly shown) [Compound I-239],< 0.1
12,CNc1cc(-c2cnc3n([C@H]4COC[C@@H]4OC)cccc2-3)nc2c(C(=O)N[C@H]3CC[C@@H]3F)cnn12 [Compound I-833],< 0.1
13,CNc1cc(Nc2cccn([C@H]3C[C@@H]3OC)c2=O)nc2c(C(=O)N[C@H]3CC[C@@H]3F)cnn12 [Compound I-158],< 0.1
14,CNc1cc(-c2cnc3n([C@H]4COC[C@@H]4OC)cccc2-3)nc2c(C(=O)NC3CC[C@H]3F)cnn12 (stereo partly shown) [Compound I-838],< 0.1
15,CNc1cc(Nc2cccn([C@@H]3CC[C@@H]3O)c2=O)nc2c(C(=O)N[C@H]3CCC3(F)F)cnn12 [Compound I-290],< 0.1
16,CNc1cc(Nc2cccn(-c3ncccc3F)c2=O)nc2c(C(=O)N[C@@H]3CC[C@H]3OC)cnn12 [Compound I-266],< 0.1
17,CNc1cc(Nc2cccn([C@@H]3CCOC[C@@H]3OC)c2=O)nc2c(C(=O)N[C@@H]3CCC3(F)F)cnn12 [Compound I-338],< 0.1

row,Compound,IC50 [µM]
1,CNc1cc(Nc2cccn([C@H]3CCC[C@H](OC)C3)c2=O)nc2c(C(=O)N[C@H]3CC[C@@H]3F)cnn12 [Compound I-231],< 0.1
2,CNc1cc(Nc2cccn([C@H]3[C@@H]4COC[C@@H]43)c2=O)nc2c(C(=O)N[C@@H]3CC[C@@H]3F)cnn12 [Compound I-205],< 0.1
3,CNc1cc(-c2cnc3n([C@@H]4CCOC4)cccc2-3)nc2c(C(=O)N[C@@H]3CC[C@H]3OC)cnn12 [Compound I-1005],0.1 to 0.5
4,CNc1cc(Nc2cccn(C3CCOCC3)c2=O)nc2c(C(=O)N[C@H]3CC[C@]3(C)O)cnn12 [Compound I-349],< 0.1
5,CNc1cc(Nc2cccn(C(C)C)c2=O)nc2c(C(=O)NC3CC[C@]3(C)O)cnn12 (stereo partly shown) [Compound I-339],< 0.1
6,CNc1cc(-c2cn([C@@H]3COC[C@H]3O)c3ncccc23)nc2c(C(=O)N[C@H]3CCC3(F)F)cnn12 [Compound I-693],< 0.1
7,CO[C@@H]1CC[C@H]1NC(=O)c1cnn2c3c(c(Nc4cccn(C(C)C)c4=O)nc12)OCCN3 [Compound I-760],< 0.1
8,CNc1cc(Nc2cccn(-c3ccccn3)c2=O)nc2c(C(=O)NC3CCC3(F)F)cnn12 (stereo not shown) [Compound I-318],< 0.1
9,CNc1cc(-c2cnc3n([C@@H]4CN(C)C[C@H]4OC)cccc2-3)nc2c(C(=O)NC3CC[C@@H]3OC)cnn12 (stereo partly shown) [Compound I-943],< 0.1
10,CNc1cc(Nc2cccn([C@@H]3CCC[C@H](C#N)C3)c2=O)nc2c(C(=O)NC3CCC3(F)F)cnn12 (stereo partly shown) [Compound I-327],< 0.1
11,"CNc1cc(Nc2cccn([C@H]3C[C@H](F)C3)c2=O)nc2c(C(=O)N[C@H]3CC[C@H]3O)cnn12 [Compound I-16, 5-((1-((1r,3S)-3-Fluorocyclobutyl)-2-oxo-1,2-dihydropyridin-3-yl)amino)-N-((1S,2R)-2-hydroxycyclobutyl)-7-(methylamino)pyrazolo[1,5-a]pyrimidine-3-carboxamide]",< 0.1
12,CNc1cc(Nc2cccn([C@H]3C[C@@H](OC)C3)c2=O)nc2c(C(=O)N[C@H]3CCC3(F)F)cnn12 [Compound I-296],< 0.1
13,CNc1cc(Nc2cccn([C@H]3CC[C@H](OC)CC3)c2=O)nc2c(C(=O)N[C@H]3CC[C@@H]3F)cnn12 [Compound I-225],< 0.1
14,CNc1cc(-c2cnc3n(CCCN4CCOCC4)cccc2-3)nc2c(C(=O)N[C@H]3CC[C@@H]3OC)cnn12 [Compound I-990],< 0.1
15,CNc1cc(Nc2cccn(C3CCN(CCF)CC3)c2=O)nc2c(C(=O)NC3CC[C@@H]3F)cnn12 (stereo partly shown) [Compound I-236],< 0.1
16,CNc1cc(-c2cnc3n([C@@H]4CCOC4)cccc2-3)nc2c(C(=O)NC3CC[C@@H]3OC)cnn12 (stereo partly shown) [Compound I-995],< 0.1

# The remaining lines, values ahead:
row,IC50 [µM],Compound
1,< 0.1,CNc1cc(-c2cn([C@H]3COC[C@@H]3OC)c3ncccc23)nc2c(C(=O)N[C@@H]3CC[C@@H]3F)cnn12 [Compound I-530]
2,< 0.1,CNc1cc(-c2cn([C@@H]3CCC4(C3)OCCO4)c3ncccc23)nc2c(C(=O)NC3CC[C@@H]3OC)cnn12 (stereo partly shown) [Compound I-672]
3,< 0.1,CNc1cc(-c2cn([C@@H]3CCOC[C@@H]3OC)c3ncccc23)nc2c(C(=O)N[C@H]3CC[C@@H]3OC)cnn12 [Compound I-669]
4,< 0.1,CNc1cc(-c2cn([C@H]3C[C@@H](COC)C3)c3ncccc23)nc2c(C(=O)N[C@@H]3CC[C@@H]3O)cnn12 [Compound I-914]
5,< 0.1,CNc1cc(-c2cn([C@@H]3CCC4(C3)OCCO4)c3ncccc23)nc2c(C(=O)N[C@H]3CC[C@@H]3OC)cnn12 [Compound I-806]
6,< 0.1,CNc1cc(-c2cn([C@H]3COC[C@H]3F)c3ncccc23)nc2c(C(=O)NC3CC[C@H]3O)cnn12 (stereo partly shown) [Compound I-573]
7,< 0.1,CNc1cc(-c2cn([C@H]3C[C@@H](O)C3)c3ncccc23)nc2c(C(=O)N[C@H]3CC[C@@H]3OC)cnn12 [Compound I-606]
8,0.1 to 0.5,CNc1cc(-c2cn([C@@H]3COC[C@H]3OC)c3ncccc23)nc2c(C(=O)N[C@@H]3CC[C@@H]3O)cnn12 [Compound I-583]
9,< 0.1,CNc1cc(-c2cn([C@H]3CCOC[C@H]3OC)c3ncccc23)nc2c(C(=O)NC3CC[C@@H]3F)cnn12 (stereo partly shown) [Compound I-546]
10,< 0.1,CNc1cc(-c2cn([C@H]3COC[C@@H]3OC)c3ncccc23)nc2c(C(=O)N[C@H]3CC[C@@H]3OC)cnn12 [Compound I-634]
11,< 0.1,CNc1cc(-c2cn([C@@H]3COC[C@H]3OC)c3ncccc23)nc2c(C(=O)NC3CC[C@@H]3OC)cnn12 (stereo partly shown) [Compound I-636]
12,< 0.1,CNc1cc(-c2cn([C@@H]3CCOC[C@@H]3OC)c3ncccc23)nc2c(C(=O)N[C@H]3CC[C@@H]3F)cnn12 [Compound I-798]
13,< 0.1,CO[C@H]1CC[C@@H]1NC(=O)c1cnn2c(N)cc(-c3cnc4n([C@H]5COC[C@@H]5OC)cccc3-4)nc12 [Compound I-1006]
14,< 0.1,CNc1cc(-c2cnc3n([C@H]4COC[C@@H]4O)cccc2-3)nc2c(C(=O)N[C@@H]3CC[C@H]3OC)cnn12 [Compound I-878]
15,0.1 to 0.5,CNc1cc(-c2cn([C@@H]3CC(=O)N(C)C3)c3ncccc23)nc2c(C(=O)N[C@H]3CC[C@@H]3OC)cnn12 [Compound I-1022]
16,0.1 to 0.5,CNc1cc(-c2cn([C@H]3CC(=O)N(C4CCOCC4)C3)c3ncccc23)nc2c(C(=O)NC3CC[C@@H]3OC)cnn12 (stereo partly shown) [Compound I-1027]
17,< 0.1,CNc1cc(-c2cn([C@H]3CCOC[C@@H]3OC)c3ncccc23)nc2c(C(=O)N[C@H]3CC[C@@H]3OC)cnn12 [Compound I-663]
18,< 0.1,CNc1cc(-c2cn([C@H]3CCC[C@H]3F)c3ncccc23)nc2c(C(=O)N[C@H]3COC[C@H]3O)cnn12 [Compound I-722]

# Same assay, conditions: 0.5 h, 1.7 ng/mL IL-12 for 30 minutes
row,IC50 [µM],Compound
1,< 0.1,"CNc1cc(-c2cnc3n([C@H]4COC[C@@H]4O)cccc2-3)nc2c(C(=O)NC3CC[C@@H]3F)cnn12 (stereo partly drawn) [Compound I-826, N-((trans-1,2)-2-Fluorocyclobutyl)-5-(7-((3S,4R)-4-hydroxytetrahydrofuran-3-yl)-7H-pyrrolo[2,3-b]pyridin-3-yl)-7-(methylamino)pyrazolo[1,5-a]pyrimidine-3-carboxamide]"
2,< 0.1,"O=C(NC1CCC1(F)F)c1cnn2c3c(c(-c4cn([C@H]5C[C@H](O)C5)c5ncccc45)nc12)OCCN3 (stereo partly drawn) [Compound I-775, N-(2,2-Difluorocyclobutyl)-5-(1-((1r,3S)-3-hydroxycyclobutyl)-1H-pyrrolo[2,3-b]pyridin-3-yl)-2,3-dihydro-1H-pyrazolo[5′,1′:2,3]pyrimido [5,4-b][1,4]oxazine-7-carboxamide]"
3,0.1 to 0.5,"CNc1cc(-c2cn(CC(=O)N3CCC3)c3ncccc23)nc2c(C(=O)NC3CC[C@@H]3OC)cnn12 (stereo in doubt) [Compound I-928, 5-(1-(2-(azetidin-1-yl)-2-oxoethyl)-1H-pyrrolo[2,3-b]pyridin-3-yl)-N-(2-methoxycyclobutyl)-7-(methylamino)pyrazolo[1,5-a]pyrimidine-3-carboxamide]"
4,< 0.1,"CNc1cc(Nc2cccn([C@@H]3CCC[C@H](C#N)C3)c2=O)nc2c(C(=O)NC3CC[C@@H]3OC)cnn12 (stereo partly drawn) [Compound I-115, 5-((1-((1R,3S)-3-Cyanocyclohexyl)-2-oxo-1,2-dihydropyridin-3-yl)amino)-N-((trans-1,2)-2-methoxycyclobutyl)-7-(methylamino)pyrazolo[1,5-a]pyrimidine-3-carboxamide]"
